Calls of active or inactive are those of the source. No cut-off for these calls is given here.
Tests used:
[1] = molecular target: Non-receptor tyrosine-protein kinase TNK1 (Homo sapiens) (UniProt Q13470); experiment: Inhibition of TNK1 (unknown origin) at 1 uM
[2] = Volume of distribution at steady state in Sprague-Dawley rat at 5 mg/kg, iv; assay type: ADME, organism-based; conditions: in vivo, read-out: Vdss
[3] = molecular target: Tyrosine-protein kinase Yes (Homo sapiens) (UniProt P07947); experiment: Inhibition of YES (unknown origin) at 1 uM
Chain of Tyrosine-protein kinase Yes (Homo sapiens) (P07947 2-543 limits assumed): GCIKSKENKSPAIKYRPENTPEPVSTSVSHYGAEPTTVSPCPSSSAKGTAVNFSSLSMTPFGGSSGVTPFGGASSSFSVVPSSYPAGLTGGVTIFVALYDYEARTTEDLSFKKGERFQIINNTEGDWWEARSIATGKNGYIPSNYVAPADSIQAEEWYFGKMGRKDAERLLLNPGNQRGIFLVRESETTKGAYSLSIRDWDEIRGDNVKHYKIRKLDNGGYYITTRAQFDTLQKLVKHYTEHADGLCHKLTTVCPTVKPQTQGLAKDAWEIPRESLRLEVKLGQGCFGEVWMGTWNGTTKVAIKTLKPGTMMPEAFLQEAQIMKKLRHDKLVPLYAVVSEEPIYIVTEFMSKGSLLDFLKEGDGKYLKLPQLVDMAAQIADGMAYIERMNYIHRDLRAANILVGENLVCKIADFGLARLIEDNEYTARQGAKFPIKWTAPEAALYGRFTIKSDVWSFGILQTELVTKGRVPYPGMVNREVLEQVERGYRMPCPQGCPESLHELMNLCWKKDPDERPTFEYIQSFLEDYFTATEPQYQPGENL

[4] = molecular target: CDK2/Cyclin A2 (Homo sapiens) (UniProt P24941+P20248); experiment: Inhibition of CDK2/cyclin-A (unknown origin) at 1 uM; assay type: protein-complex assay
[5] = molecular target: SRSF protein kinase 3 (Homo sapiens) (UniProt Q9UPE1); experiment: Inhibition of MSSK1 (unknown origin) at 1 uM
HCT-116 [6] = experiment: Antitumor immunity in BALB/c mouse xenografted with human HCT-116 cells assessed as induction of apoptosis of CD4+ T-lymphocytes in tumor-draining lymph nodes by propidium iodide staining based flow cytometry analysis (reference value: 21.9 %); assay type: functional
[7] = molecular target: Serine/threonine-protein kinase 32C (Homo sapiens) (UniProt Q86UX6); experiment: Inhibition of STK32C (unknown origin) at 1 uM
[8] = molecular target: Serine/threonine-protein kinase PLK1 (Homo sapiens) (UniProt P53350); experiment: Inhibition of PLK1 (unknown origin) at 1 uM
[9] = molecular target: Serine/threonine-protein kinase Chk1 (Homo sapiens) (UniProt O14757); experiment: Inhibition of CHK1 (unknown origin) at 1 uM
[10] = molecular target: Mitogen-activated protein kinase 1 (Homo sapiens) (UniProt P28482); experiment: Inhibition of ERK2 (unknown origin) at 1 uM
[11] = molecular target: Proto-oncogene tyrosine-protein kinase Src (Homo sapiens) (UniProt P12931); experiment: Inhibition of c-SRC (unknown origin) at 1 uM
Chain of Proto-oncogene tyrosine-protein kinase Src (Homo sapiens) (P12931 2-536 limits assumed): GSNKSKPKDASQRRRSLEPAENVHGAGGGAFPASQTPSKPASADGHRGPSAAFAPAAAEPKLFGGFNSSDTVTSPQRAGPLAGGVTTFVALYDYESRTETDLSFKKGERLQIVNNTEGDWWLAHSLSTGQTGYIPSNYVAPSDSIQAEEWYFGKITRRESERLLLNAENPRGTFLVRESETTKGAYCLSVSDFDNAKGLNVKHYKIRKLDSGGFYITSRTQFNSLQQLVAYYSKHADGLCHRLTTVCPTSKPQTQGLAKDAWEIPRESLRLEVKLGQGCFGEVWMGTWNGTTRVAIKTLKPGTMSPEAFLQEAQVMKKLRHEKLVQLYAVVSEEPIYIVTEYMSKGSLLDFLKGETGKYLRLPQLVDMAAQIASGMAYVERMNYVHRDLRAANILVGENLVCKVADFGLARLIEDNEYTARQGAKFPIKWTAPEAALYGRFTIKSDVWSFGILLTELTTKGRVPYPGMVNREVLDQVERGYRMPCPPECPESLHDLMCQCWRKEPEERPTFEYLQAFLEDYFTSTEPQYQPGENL

[12] = molecular target: Serine/threonine-protein kinase TAO3 (Homo sapiens) (UniProt Q9H2K8); experiment: Inhibition of TAOK3 (unknown origin) at 1 uM
[13] = molecular target: Serine/threonine-protein kinase DCLK2 (Homo sapiens) (UniProt Q8N568); experiment: Inhibition of DCAMKL2 (unknown origin) at 1 uM
CT26 = experiment: Cytotoxicity against mouse CT26 cells assessed as reduction in cell viability by CCK8 assay; assay type: functional, cell-based
[14] = molecular target: T1, Indoleamine 2,3-dioxygenase 2 (Homo sapiens, UniProt Q6ZQW0); experiment: Inhibition of IDO2 (unknown origin) assessed as reduction in kynurenine formation using L-tryptophan as substrate by methylene blue reagent based assay
T1 sequence (Q6ZQW0 whole entry): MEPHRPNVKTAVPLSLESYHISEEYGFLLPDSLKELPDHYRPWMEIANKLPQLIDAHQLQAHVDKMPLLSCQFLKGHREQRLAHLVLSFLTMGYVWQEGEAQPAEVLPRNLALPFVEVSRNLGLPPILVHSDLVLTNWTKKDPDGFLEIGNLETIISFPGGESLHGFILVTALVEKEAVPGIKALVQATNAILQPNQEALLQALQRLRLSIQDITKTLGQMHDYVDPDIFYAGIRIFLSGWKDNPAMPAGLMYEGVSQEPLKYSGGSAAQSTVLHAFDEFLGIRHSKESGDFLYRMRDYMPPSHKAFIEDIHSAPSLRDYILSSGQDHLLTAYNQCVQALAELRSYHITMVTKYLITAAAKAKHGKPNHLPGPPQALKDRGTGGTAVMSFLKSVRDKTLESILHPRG

[15] = molecular target: Serine/threonine-protein kinase 3 (Homo sapiens) (UniProt Q13188); experiment: Inhibition of MST2 (unknown origin) at 1 uM
[16] = molecular target: Rhodopsin kinase GRK1 (Homo sapiens) (UniProt Q15835); experiment: Inhibition of GRK1 (unknown origin) at 1 uM
Chain of Rhodopsin kinase GRK1 (Homo sapiens) (Q15835 whole entry): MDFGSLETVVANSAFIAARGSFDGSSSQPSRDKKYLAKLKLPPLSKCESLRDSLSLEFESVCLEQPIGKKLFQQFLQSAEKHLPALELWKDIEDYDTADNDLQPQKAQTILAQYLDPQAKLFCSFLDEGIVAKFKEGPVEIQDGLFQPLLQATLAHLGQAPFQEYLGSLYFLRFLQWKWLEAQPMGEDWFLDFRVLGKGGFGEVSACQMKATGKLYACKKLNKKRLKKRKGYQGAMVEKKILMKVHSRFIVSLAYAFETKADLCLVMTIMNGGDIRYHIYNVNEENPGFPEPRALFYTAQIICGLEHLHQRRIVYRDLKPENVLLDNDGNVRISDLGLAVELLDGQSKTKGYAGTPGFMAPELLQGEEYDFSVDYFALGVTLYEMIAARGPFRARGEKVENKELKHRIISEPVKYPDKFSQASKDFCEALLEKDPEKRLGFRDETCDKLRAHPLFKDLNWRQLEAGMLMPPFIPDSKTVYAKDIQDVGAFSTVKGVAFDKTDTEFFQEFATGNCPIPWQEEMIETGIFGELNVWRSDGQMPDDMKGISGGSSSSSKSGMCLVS

[17] = molecular target: Tyrosine-protein kinase Fyn (Homo sapiens) (UniProt P06241); experiment: Inhibition of FYN (unknown origin) at 1 uM
[18] = molecular target: Tyrosine-protein kinase Lck (Homo sapiens) (UniProt P06239); experiment: Inhibition of LCK (unknown origin) at 1 uM
Chain of Tyrosine-protein kinase Lck (Homo sapiens) (P06239 2-509 limits assumed): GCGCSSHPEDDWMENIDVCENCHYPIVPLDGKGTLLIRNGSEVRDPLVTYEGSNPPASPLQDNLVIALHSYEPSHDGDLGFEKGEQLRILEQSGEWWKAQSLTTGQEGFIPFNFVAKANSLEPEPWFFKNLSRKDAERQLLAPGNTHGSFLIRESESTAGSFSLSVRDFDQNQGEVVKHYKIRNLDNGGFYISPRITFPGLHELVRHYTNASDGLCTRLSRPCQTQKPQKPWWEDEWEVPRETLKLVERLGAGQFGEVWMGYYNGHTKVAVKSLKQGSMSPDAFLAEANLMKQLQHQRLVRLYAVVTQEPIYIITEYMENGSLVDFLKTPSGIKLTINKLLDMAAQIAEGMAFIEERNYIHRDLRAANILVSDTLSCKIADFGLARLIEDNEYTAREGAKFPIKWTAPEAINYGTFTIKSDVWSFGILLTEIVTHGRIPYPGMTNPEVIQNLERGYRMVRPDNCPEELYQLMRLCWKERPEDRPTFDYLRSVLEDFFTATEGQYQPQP

[19] = molecular target: RAF proto-oncogene serine/threonine-protein kinase (Homo sapiens) (UniProt P04049); experiment: Inhibition of RAF1 (unknown origin) at 1 uM
Chain of RAF proto-oncogene serine/threonine-protein kinase (Homo sapiens) (P04049 whole entry): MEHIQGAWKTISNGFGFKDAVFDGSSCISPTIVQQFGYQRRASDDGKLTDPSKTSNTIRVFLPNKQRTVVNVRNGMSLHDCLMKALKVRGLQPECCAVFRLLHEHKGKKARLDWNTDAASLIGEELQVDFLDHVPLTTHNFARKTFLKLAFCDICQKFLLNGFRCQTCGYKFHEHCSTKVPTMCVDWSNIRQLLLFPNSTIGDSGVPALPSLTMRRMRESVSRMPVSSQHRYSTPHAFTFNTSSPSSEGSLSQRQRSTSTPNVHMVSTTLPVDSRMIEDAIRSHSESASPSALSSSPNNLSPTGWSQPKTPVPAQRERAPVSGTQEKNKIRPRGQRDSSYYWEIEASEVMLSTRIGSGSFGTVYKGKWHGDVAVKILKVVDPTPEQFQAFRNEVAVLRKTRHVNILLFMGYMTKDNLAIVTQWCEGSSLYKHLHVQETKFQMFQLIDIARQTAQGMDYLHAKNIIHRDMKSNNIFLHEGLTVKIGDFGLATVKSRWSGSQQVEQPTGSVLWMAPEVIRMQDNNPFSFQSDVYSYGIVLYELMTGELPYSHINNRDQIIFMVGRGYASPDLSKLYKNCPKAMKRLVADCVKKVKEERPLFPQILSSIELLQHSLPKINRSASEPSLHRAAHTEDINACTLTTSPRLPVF

[20] = Intrinsic clearance in human liver microsomes; assay type: ADME, Microsome; conditions: read-out: CLH
[21] = molecular target: CDK18/Cyclin Y (Homo sapiens) (UniProt Q07002+Q8ND76); experiment: Inhibition of CDK18/cyclin-Y (unknown origin) at 1 uM; assay type: protein-complex assay
[22] = molecular target: Mitogen-activated protein kinase kinase kinase 11 (Homo sapiens) (UniProt Q16584); experiment: Inhibition of MLK3 (unknown origin) at 1 uM
[23] = molecular target: Tyrosine-protein kinase receptor TYRO3 (Homo sapiens) (UniProt Q06418); experiment: Inhibition of TYRO3 (unknown origin) at 1 uM
Chain of Tyrosine-protein kinase receptor TYRO3 (Homo sapiens) (Q06418 whole entry, the tested form may be a part): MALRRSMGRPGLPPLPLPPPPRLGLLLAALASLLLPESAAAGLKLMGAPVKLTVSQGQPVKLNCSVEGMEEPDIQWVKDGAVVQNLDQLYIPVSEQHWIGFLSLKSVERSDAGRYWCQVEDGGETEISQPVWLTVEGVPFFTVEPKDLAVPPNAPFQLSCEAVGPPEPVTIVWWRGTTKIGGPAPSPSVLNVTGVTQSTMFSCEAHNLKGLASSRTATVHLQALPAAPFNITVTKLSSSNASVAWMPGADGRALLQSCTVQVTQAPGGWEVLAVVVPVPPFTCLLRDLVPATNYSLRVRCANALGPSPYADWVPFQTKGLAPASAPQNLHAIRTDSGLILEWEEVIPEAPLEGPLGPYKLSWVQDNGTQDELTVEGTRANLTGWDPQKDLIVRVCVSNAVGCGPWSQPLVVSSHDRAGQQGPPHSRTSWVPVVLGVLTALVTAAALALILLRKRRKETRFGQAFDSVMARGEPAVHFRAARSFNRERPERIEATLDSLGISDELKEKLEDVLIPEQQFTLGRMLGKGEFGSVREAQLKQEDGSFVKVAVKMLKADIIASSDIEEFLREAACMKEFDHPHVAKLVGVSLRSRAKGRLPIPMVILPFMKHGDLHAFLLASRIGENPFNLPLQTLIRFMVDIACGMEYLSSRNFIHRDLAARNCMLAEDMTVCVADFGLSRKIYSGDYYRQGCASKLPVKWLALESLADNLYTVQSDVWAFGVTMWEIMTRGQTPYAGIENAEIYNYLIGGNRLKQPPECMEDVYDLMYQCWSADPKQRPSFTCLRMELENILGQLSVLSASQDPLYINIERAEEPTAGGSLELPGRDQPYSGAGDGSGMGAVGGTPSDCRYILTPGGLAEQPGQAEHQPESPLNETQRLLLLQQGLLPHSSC

[24] = molecular target: LIM domain kinase 1 (Homo sapiens) (UniProt P53667); experiment: Inhibition of LIMK1 (unknown origin) at 1 uM
Chain of LIM domain kinase 1 (Homo sapiens) (P53667 whole entry, looked up, the tested form may be a part): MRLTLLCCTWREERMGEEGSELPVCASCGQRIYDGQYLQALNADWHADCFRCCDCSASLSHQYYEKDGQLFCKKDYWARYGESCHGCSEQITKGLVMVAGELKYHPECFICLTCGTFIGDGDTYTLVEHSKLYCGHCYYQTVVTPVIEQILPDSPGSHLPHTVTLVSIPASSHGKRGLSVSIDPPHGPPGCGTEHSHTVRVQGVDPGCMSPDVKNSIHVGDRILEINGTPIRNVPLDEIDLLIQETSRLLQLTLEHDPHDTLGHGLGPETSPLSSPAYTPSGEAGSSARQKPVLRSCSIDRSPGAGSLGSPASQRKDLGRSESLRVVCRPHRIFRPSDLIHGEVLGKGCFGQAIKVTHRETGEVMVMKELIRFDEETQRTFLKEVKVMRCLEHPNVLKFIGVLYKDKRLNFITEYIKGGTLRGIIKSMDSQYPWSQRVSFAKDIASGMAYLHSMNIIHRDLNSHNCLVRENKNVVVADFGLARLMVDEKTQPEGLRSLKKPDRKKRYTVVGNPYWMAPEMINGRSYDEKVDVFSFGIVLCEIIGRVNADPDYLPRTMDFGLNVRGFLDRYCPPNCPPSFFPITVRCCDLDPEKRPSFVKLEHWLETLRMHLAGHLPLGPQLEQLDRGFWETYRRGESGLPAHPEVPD

[25] = molecular target: Tyrosine-protein kinase HCK (Homo sapiens) (UniProt P08631); experiment: Inhibition of HCK (unknown origin) at 1 uM
Chain of Tyrosine-protein kinase HCK (Homo sapiens) (P08631 2-526 limits assumed): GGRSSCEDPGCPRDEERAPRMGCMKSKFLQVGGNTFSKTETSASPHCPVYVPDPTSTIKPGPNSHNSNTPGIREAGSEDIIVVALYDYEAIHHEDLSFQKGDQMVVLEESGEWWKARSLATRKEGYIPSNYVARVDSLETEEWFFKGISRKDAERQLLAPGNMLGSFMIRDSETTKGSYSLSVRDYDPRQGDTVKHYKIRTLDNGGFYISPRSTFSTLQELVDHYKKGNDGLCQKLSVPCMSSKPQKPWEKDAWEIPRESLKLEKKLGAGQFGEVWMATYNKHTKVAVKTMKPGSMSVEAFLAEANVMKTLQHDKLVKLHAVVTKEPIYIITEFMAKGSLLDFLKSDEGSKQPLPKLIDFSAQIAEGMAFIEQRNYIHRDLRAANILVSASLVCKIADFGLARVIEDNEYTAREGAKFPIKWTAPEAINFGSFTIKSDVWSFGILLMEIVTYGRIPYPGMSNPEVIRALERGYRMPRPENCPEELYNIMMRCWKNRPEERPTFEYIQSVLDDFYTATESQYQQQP

[26] = molecular target: Casein kinase I isoform gamma-1 (Homo sapiens) (UniProt Q9HCP0); experiment: Inhibition of CK1gamma1 (unknown origin) at 1 uM
Mus musculus = experiment: In vivo inhibition of TDO in BALB/c mouse xenografted with human HCT-116 cells assessed as suppression of TDO expression in tumor by immunohistochemical assay; assay type: functional, organism-based
[27] = molecular target: Death-associated protein kinase 2 (Homo sapiens) (UniProt Q9UIK4); experiment: Inhibition of DAPK2 (unknown origin) at 1 uM
[28] = molecular target: Casein kinase I isoform gamma-2 (Homo sapiens) (UniProt P78368); experiment: Inhibition of CK1gamma2 (unknown origin) at 1 uM
[29] = molecular target: Serine/threonine-protein kinase D2 (Homo sapiens) (UniProt Q9BZL6); experiment: Inhibition of PKD2 (unknown origin) at 1 uM
HCT-116 [30] = experiment: Antitumor immunity in BALB/c mouse xenografted with human HCT-116 cells assessed as live Treg cells in tumor-draining lymph nodes by propidium iodide staining based flow cytometry analysis (reference value: 70.6 %); assay type: functional
[31] = molecular target: Platelet-derived growth factor receptor alpha (Homo sapiens) (UniProt P16234); experiment: Inhibition of PDGFRalpha (unknown origin) at 1 uM
[32] = molecular target: CDK9/Cyclin K (Homo sapiens) (UniProt P50750+O75909); experiment: Inhibition of CDK9/cyclin-K (unknown origin) at 1 uM; assay type: protein-complex assay
[33] = molecular target: G protein-coupled receptor kinase 4 (Homo sapiens) (UniProt P32298); experiment: Inhibition of GRK4 (unknown origin) at 1 uM
[34] = molecular target: MAP kinase-interacting serine/threonine-protein kinase 1 (Homo sapiens) (UniProt Q9BUB5); experiment: Inhibition of MNK1 (unknown origin) at 1 uM
[35] = molecular target: Serine/threonine-protein kinase MRCK alpha (Homo sapiens) (UniProt Q5VT25); experiment: Inhibition of MRCKalpha (unknown origin) at 1 uM
[36] = molecular target: Dual specificity tyrosine-phosphorylation-regulated kinase 2 (Homo sapiens) (UniProt Q92630); experiment: Inhibition of DYRK2 (unknown origin) at 1 uM

Question: With OCCOCc1cn(CCNc2nonc2/C(=N/O)Nc2ccc(F)c(Br)c2)nn1 as the compound, how does the inhibition [1] read?
Answer: inactive

Question: And the Vd [2]?
Answer: 0.88 L/kg

Question: And the inhibition [3]?
Answer: inactive

Question: What about the inhibition [4] of the same compound?
Answer: inactive

Question: And the inhibition [5]?
Answer: inactive

Question: And the Activity (HCT-116 [6])?
Answer: 8.83%

Question: And the inhibition [7]?
Answer: inactive

Question: What about the inhibition [8] of the same compound?
Answer: inactive

Question: And the inhibition [9]?
Answer: inactive

Question: What about the inhibition [10] of the same compound?
Answer: inactive

Question: What about the inhibition [11] of the same compound?
Answer: inactive

Question: And the inhibition [12]?
Answer: inactive

Question: What about the inhibition [13] of the same compound?
Answer: inactive

Question: What about the IC50 (CT26) of the same compound?
Answer: 62 µM

Question: What about the IC50 [14] of the same compound?
Answer: 0.144 µM

Question: What about the inhibition [15] of the same compound?
Answer: inactive

Question: And the inhibition [16]?
Answer: inactive

Question: And the inhibition [17]?
Answer: inactive

Question: What about the inhibition [18] of the same compound?
Answer: inactive

Question: And the inhibition [19]?
Answer: inactive

Question: What about the microsomal CLint [20] of the same compound?
Answer: 30.1 µL/min/mg

Question: What about the inhibition [21] of the same compound?
Answer: inactive

Question: And the inhibition [22]?
Answer: inactive

Question: What about the inhibition [23] of the same compound?
Answer: inactive

Question: And the inhibition [24]?
Answer: inactive

Question: What about the inhibition [25] of the same compound?
Answer: inactive

Question: And the inhibition [26]?
Answer: inactive

Question: What about the inhibition (Mus musculus) of the same compound?
Answer: inactive

Question: And the inhibition [27]?
Answer: inactive

Question: And the inhibition [28]?
Answer: inactive

Question: What about the inhibition [29] of the same compound?
Answer: inactive

Question: And the Activity (HCT-116 [30])?
Answer: 88.1%

Question: What about the inhibition [31] of the same compound?
Answer: inactive

Question: What about the inhibition [32] of the same compound?
Answer: inactive

Question: And the inhibition [33]?
Answer: inactive

Question: And the inhibition [34]?
Answer: inactive

Question: And the inhibition [35]?
Answer: inactive

Question: What about the inhibition [36] of the same compound?
Answer: inactive

From ChEMBL document CHEMBL5055685, “Discovery of the First Potent IDO1/IDO2 Dual Inhibitors: A Promising Strategy for Cancer Immunotherapy” (J Med Chem, 2021)
